Assay results from patent US20160346406A1, “METHOD FOR INCREASING THE INTRAOCULAR PRESSURE IN AN ANIMAL” (INSTITUT NATIONAL DE LA SANTE ET DE LA RECHERCHE MEDICALE …, priority 2011, published 2016).
Entries after “also recorded” stand apart in the source; their conditions may differ.

Experiments:
[1] = system: trabecular cells; experiment: Ex vivo trabecular cell apoptosis (TUNEL labelling); type: in vivo, rat; conditions: BAK-injected eyes vs controls, end of experiments; P<0.01
Experimental: At the end of the experiments, animals were euthanized and the eyes were immediately conditioned for TUNEL labelling. Eyes were fixed in 4% paraformaldehyde, embedded in an optimal cutting-temperature compound (OCT, Tissue-Tek, Miles Inc, Bayer Diagnostic, Puteaux, France) and cut into 15-μm cryosections. A terminal deoxynucleotidyl transferase-mediated dUTP nick-end labelling (TUNEL) assay (Roche Diagnostics, Meylan, France) was performed to detect apoptosis in rat ocular tissues following the manufacturer's instructions. Specimens were mounted in aqueous mounting medium with DAPI to be further analyzed using light epifluorescence microscopy.

[2] = system: Long-Evans rats; experiment: Intra-ocular pressure monitoring after two subconjunctival injections of 0.1% BAK; type: in vivo, rat
Experimental: Six male 8-week-old Long-Evans rats weighing 300-350 g were used. At D0, first subconjunctival injection of 0.1% BAK (100 μL) was performed in the right eye whereas the left eye received 0.9% NaCl vehicle only as control. A second injection was performed seven days after following the same protocol. Animals were daily monitored for intra-ocular pressure using a handheld tonometer, without sedation.
Six male 8-week-old Long-Evans rats weighing 300-350 g were used. Animals were kept in pathogen-free conditions with food and water available ad libitum and housed in a 12-h light/12-h dark cycle. Ocular integrity was checked using the slit lamp biomicroscope. At D0, first subconjunctival injection of 0.1% BAK (100 μL) was performed in the right eye whereas the left eye received PBS only as control. A second injection was performed seven days after following the same protocol. Animals were daily monitored for intra-ocular pressure using a handheld tonometer (TonoLab, Medtronics, Jacksonville, Fla., USA) without sedation. All experiments were conducted in accordance with the Association for Research in Vision and Ophthalmology for the Use of Animals in Ophthalmic research.

[3] = system: Long-Evans rats; experiment: In vivo outflow facility measurement; design: species or system rat; conditions: six days after second injection of 0.1% BAK; infusion 0.1, 0.2, 0.3 μL/min; vs vehicle-injected control eyes
Experimental: Six days after the second injection of BAK, trabecular outflow facility was measured in vivo under general anaesthesia. The eyes were anteriorly canulated with a 30-G needle connected by tubing to a 1 mL syringe filled with PBS and loaded into a microdialysis infusion pump. Intraocular pressure was measured after a 10-min stabilization period for three different infusion flow rates (0.1, 0.2, and 0.3 μL/min). Aqueous humor outflow facility was calculated as the reciprocal of the slope of the respective ocular pressure/flow rate curves. Outflow facility (OF) was decreased in BAK-injected eyes as compared to vehicle-injected control eyes.
Six days after the second injection of BAK, trabecular outflow facility was measured in vivo under general anaesthesia (intraperitoneal injection of ketamine 75 mg/kg and xylazine 10 mg/kg). Briefly, the eyes were anteriorly canulated with a 30-G needle connected by tubing to a 1 mL syringe filled with PBS and loaded into a microdialysis infusion pump (World Precision instruments). Intraocular pressure was measured after a 10-min stabilization period for three different infusion flow rates (0.1, 0.2, and 0.3 μL/min). Aqueous humor outflow facility (μL/min/mmHg) was calculated as the reciprocal of the slope of the respective ocular pressure/flow rate curves.

[4] = Dose-dependent effects of subconjunctival injections of BAK on intraocular pressure; type: in vivo; conditions: 3 subconjunctival injections (0.15 mL, each 48 h)
Experimental: A series of 3 subconjunctival injections with 0.01% BAK (n=3), 0.05% BAK (n=3), 0.1%, BAK (n=6) or the vehicle (n=4) was performed (0.15 mL, each 48 h during 6 days) in the right eye of animals. Intraocular pressure was measured using a handled tonometer every two days from D0 to D28. Intraocular pressure is expressed as the difference between the treated eye (right) and the left control eye.

[5] = system: ocular surface; experiment: In vivo assessment of BAK injection toxicity to the ocular surface (in vivo confocal microscopy, IVCM)
Experimental: In vivo confocal microscopy (IVCM) using the Heidelberg Retina Tomograph II/Rostock Cornea Module (Heidelberg Engineering GmbH, Heidelberg, Germany) laser-scanning was carried out to assess putative damage to the ocular surface. Images size was 400 per 400 hundred pixels with a lateral resolution of 1 micrometer and an axial resolution of 2 micrometers. […] IVCM scores were used to evaluate ocular surface toxicity profiles in the 4 groups (vehicle, 0.01% BAK, 0.05% BAK, and 0.1% BAK) in different histological regions (superficial epithelium, basal epithelium, anterior stroma, limb and conjunctival stroma), 30 days after the first BAK administration (see Table 1). […] [table]

In the case of benzalkonium chloride [BAK], the “trabecular apoptotic cells (TUNEL labelling)” value [1] was “Significant difference; also recorded: increased”, the “intra-ocular pressure after second injection” value ([2]; 0.1% BAK (100 μL) subconjunctival at D0 and seven days after, vs control eyes, D9 and D14, P<0.01) was “significantly rose and remained significantly elevated; also recorded: Significant difference; also recorded: became significant” and the “intra-ocular pressure after first injection” value ([2]; 0.1% BAK (100 μL) subconjunctival, right eye, vs vehicle control eye, D7) was “no effect; also recorded: slight increase”. For the same substance, the “trabecular (aqueous humor) outflow facility” value [3] was “decreased; also recorded: low trabecular outflow facility”, the “intraocular pressure, difference between treated eye and left control eye” value ([4]; 0.05% BAK, D9) was “significant ocular hypertension” and the “intraocular pressure, difference between treated eye and left control eye” value ([4]; 0.1% BAK, D7, D11 and D14) was “significant increase”. The “intraocular pressure, difference between treated eye and left control eye” value ([4]; other times or BAK concentrations (0.01% BAK), D0 to D28) was “did not show significant changes”, the “IVCM subscore: limbus and conjunctiva, animals with peripheral vasodilatation” value ([5]; 0.01% BAK (n=3)) was “one” and the “IVCM subscore: limbus and conjunctiva, animals with peripheral vasodilatation” value ([5]; 0.1% BAK (n=6)) was “three”. For the same substance, the “IVCM subscore: basal epithelium” value ([5]; 4 groups (vehicle, 0.01%, 0.05%, 0.1% BAK)) was “unchanged”, the “IVCM subscore: anterior stroma” value ([5]; BAK 0.1% group) was “trend for hyperplasia of the subbasal nerve plexi” and the “IVCM: posterior stroma and endothelium toxicity” value ([5]; all BAK concentrations) was “no toxicity was found”. For the same substance, the “IVCM subscore: superficial epithelium” value ([5]; all the animals) was “slight epithelial swelling”, the “overall IVCM score (ocular surface toxicity)” value ([5]; vehicle, 0.01%, 0.05% and 0.1% BAK groups, 30 days after first BAK administration, Kruskal Wallis test, p>0.05) was “No significant difference; also recorded: No statistical difference” and the “anterior eye abnormality / ocular surface pathological changes” value ([5]; whatever the BAK concentration) was “Neither anterior eye abnormality nor ocular surface pathological changes were found”.
